For this test, the system named is pAMPK. Nature of the test: pAMPK immunostaining chemiluminescence assay in Beas2B cells. Format: cell-based. Particulars: Homo sapiens, BEAS-2B, 18 h, DMEM no glucose media, compounds 3-34, 36-44, 47-60 tested as HCl salts, read-out: efficacy (minimal compound concentration needed to increase pAMPK by 30%). The protocol:
Beas2B cells were plated in 384 white nunc plate (4000 cells per well) for overnight. Compounds were serially diluted in DMEM no glucose media using the liquid handler. Cells were washed once using Biotek EL406 before compound addition for additional 18 hours. Cells were washed and fixed with PFA before immunostained with pAMPK primary antibody and anti-Rabbit HRP secondary antibody. Finally, 25 μl of ECL reagent will be added to cells, and chemical luminescence signal will be counted using plate reader. Compounds efficacies (μM) were determined by the minimal compound concentration needed to increase pAMPK by 30%. Activity: “+” equals >10 μM; “++” equals between ≤10 μM and >1 μM; and “+++” equals ≤1 μM.

Some results are limits rather than exact numbers.

On to `Cc1ccccc1CN(CC(O)COc1ccc(C(F)(F)F)cc1)C(=O)c1cocn1` (centres unmarked) [compound 78], for which the EC (30% increase) was at most 1 µM.
The same measure for `Cc1ccccc1CN(CC(O)COc1ccc(C(F)(F)F)cc1)C(=O)c1cnco1` (centres unmarked) [compound 79]: 1 to 10 µM; for `Cc1ccccc1CN(CC(O)COc1ccc(C(F)(F)F)cc1)C(=O)c1cn(C)cn1` (centres unmarked) [compound 80]: 1 to 10 µM.
For `Cc1ccccc1CN(CC(O)COc1ccc(C(F)(F)F)cc1)C(=O)c1cncn1C` (centres unmarked) [compound 81] the value was at most 1 µM; for `Cc1ccccc1CN(CC(O)COc1ccc(C(F)(F)F)cc1)C(=O)c1cnn(C)c1` (centres unmarked) [compound 82], at most 1 µM.
The same measure for `Cc1ccccc1CN(CC(O)COc1ccc(C(F)(F)F)cc1)C(=O)c1nccn1C` (centres unmarked) [compound 83]: at most 1 µM; for `Cc1ccccc1CN(CC(O)COc1ccc(C(F)(F)F)cc1)C(=O)c1nccs1` (centres unmarked) [compound 84]: at most 1 µM; for `Cc1ccccc1CN(CC(O)COc1ccc(C(F)(F)F)cc1)C(=O)c1cscn1` (centres unmarked) [compound 85]: 1 to 10 µM.
Regarding `Cc1ccccc1CN(Cc1cnccc1C(F)(F)F)CC(O)COc1ccccc1` (centres unmarked) [compound 87], the EC (30% increase) was in the range of 1 to 10 µM.
For `Cc1ccccc1CN(CC(O)COc1ccccc1)C(=O)c1ccc(C(F)(F)F)nc1` (centres unmarked) [compound 88] the value was at most 1 µM; for `Cc1ccccc1CN(CC(O)COc1ccc(C(F)(F)F)cc1)C(=O)c1c[nH]nc1C` (centres unmarked) [compound 89], 1 to 10 µM.
For `O=C(c1cncs1)N(Cc1ccccc1Cl)CC(O)COc1ccc(C(F)(F)F)cc1` (centres unmarked) [compound 90], the EC (30% increase) is at most 1 µM.
Take `Cn1ccnc1C(=O)N(Cc1ccccc1Cl)CC(O)COc1ccc(C(F)(F)F)cc1` (centres unmarked) [compound 91]: the EC (30% increase) was at most 1 µM.
With `FC(F)(F)c1ccc(OCCCc2nc3ccccc3cc2-c2ccccc2)cc1` [compound 92], the EC (30% increase) is 1 to 10 µM.
The same measure for `OC(COc1ccc(C(F)(F)F)cc1)CN1CCc2ccccc2C1c1cncs1` (centres unmarked) [compound 93]: 1 to 10 µM.
For `[2H]C1(c2cncs2)c2ccccc2CCN1CC(O)COc1ccc(C(F)(F)F)cc1` (centres unmarked) [compound 94], the EC (30% increase) was 1 to 10 µM.
The same measure for `OC(COc1ccc(C(F)(F)F)cc1)CN1CCc2ccccc2C1c1cccnc1` (centres unmarked) [compound 95]: at most 1 µM; for `[2H]C1(c2cccnc2)c2ccccc2CCN1CC(O)COc1ccc(C(F)(F)F)cc1` (centres unmarked) [compound 96]: at most 1 µM; for `OC(COc1ccc(C(F)(F)F)cc1)CN1Cc2ccccc2CC1c1cncs1` (centres unmarked) [compound 98]: 1 to 10 µM.
For `[2H]C1(c2cncs2)c2ccccc2CCN1CCCOc1ccc(C(F)(F)F)cc1` (centres unmarked) [compound 99] the value was at most 1 µM; for `FC(F)(F)c1ccc(OCCCN2CCc3ccccc3C2c2cccnc2)cc1` (centres unmarked) [compound 100], at most 1 µM; for `[2H]C1(c2cccnc2)c2ccccc2CCN1CCCOc1ccc(C(F)(F)F)cc1` (centres unmarked) [compound 101], at most 1 µM.
In the case of `[2H]C([2H])(c1cccnc1)N(Cc1ccccc1Cl)CC(O)COc1ccc(C(F)(F)F)cc1` (centres unmarked) [compound 102], the EC (30% increase) was at most 1 µM.
Consider `O=C(COc1ccc(C(F)(F)F)cc1)Cc1nc2ccccc2cc1-c1cccnc1` [compound 103], for which the EC (30% increase) is above 10 µM.
As for `FC(F)(F)c1ccc(OCCCN(Cc2cncs2)Cc2ccccc2Cl)cc1` [compound 104], the EC (30% increase) is at most 1 µM.
The same measure for `Cc1ccccc1CN(CCCOc1ccc(C(F)(F)F)cc1)Cc1nccn1C` [compound 105]: at most 1 µM; for `Cn1ccnc1CN(CCCOc1ccc(C(F)(F)F)cc1)Cc1ccccc1Cl` [compound 106]: at most 1 µM.
Take `FC(F)(F)c1ccc(OCCCN2CCc3ccccc3C2c2cncs2)cc1` (centres unmarked) [compound 107]: the EC (30% increase) was at most 1 µM.
`Cn1cncc1C(=O)N(Cc1ccccc1Cl)CC(O)COc1ccc(C(F)(F)F)cc1` (centres unmarked) [compound 108]: the EC (30% increase) was at most 1 µM.
For `Cc1ccccc1CN(CCCOc1ccc(C(F)(F)F)cc1)C(=O)c1cncn1C` [compound 109] the value was at most 1 µM.
Consider `Cc1ccccc1CN(CCCOc1ccc(C(F)(F)F)cc1)C(=O)c1ccccc1` [compound 110], for which the EC (30% increase) is at most 1 µM.
The same measure for `OC(COc1ccc(C(F)(F)F)cc1)CN1CCc2ccccc2[C@@H]1c1ccccc1` (some centres unmarked) [compound 111]: 1 to 10 µM; for `O[C@@H](COc1ccc(C(F)(F)F)cc1)CN1CCc2ccccc2[C@@H]1c1ccccc1` [compound 112]: at most 1 µM; for `O[C@H](COc1ccc(C(F)(F)F)cc1)CN1CCc2ccccc2[C@@H]1c1ccccc1` [compound 113]: 1 to 10 µM.
Turning to `OC(COc1ccc(C(F)(F)F)cc1)CN1CCc2ccccc2[C@H]1c1ccccc1` (some centres unmarked) [compound 114], the EC (30% increase) was above 10 µM.
As for `O[C@H](COc1ccc(C(F)(F)F)cc1)CN1CCc2ccccc2[C@H]1c1ccccc1` [compound 115], the EC (30% increase) lay in the range of 1 to 10 µM.
For `O[C@@H](COc1ccc(C(F)(F)F)cc1)CN1CCc2ccccc2[C@H]1c1ccccc1` [compound 116], the EC (30% increase) was above 10 µM.
For `Cc1ccccc1CN(Cc1cccnc1)C(=O)C(O)COc1ccc(C(F)(F)F)cc1` (centres unmarked) [compound 117] the value was 1 to 10 µM; for `Cc1ccccc1CN(CC(O)COc1ccc(C(F)(F)F)cc1)C(C)c1cccnc1` (centres unmarked) [compound 118], above 10 µM; for `Cc1ccccc1CN(CCCOc1ccc(C(F)(F)F)cc1)Cc1cncn1C` [compound 119], at most 1 µM.
Turning to `Cc1ccccc1CN(Cc1cccnc1)CC(C)(C)COc1ccc(C(F)(F)F)cc1` [compound 121], the EC (30% increase) was at most 1 µM.
For `Cn1cncc1CN(CCCOc1ccc(C(F)(F)F)cc1)Cc1ccccc1Cl` [compound 122] the value was at most 1 µM; for `Cc1ccccc1CN(CC(=O)COc1ccc(C(F)(F)F)cc1)C(=O)c1cccnc1` [compound 123], 1 to 10 µM; for `FC(F)(F)c1ccc(OCCCN2Cc3ccccc3CC2c2cncs2)cc1` (centres unmarked) [compound 124], 1 to 10 µM.
The same measure for `Cn1cncc1C(=O)N(CCCOc1ccc(C(F)(F)F)cc1)Cc1ccccc1Cl` [compound 125]: at most 1 µM; for `CC(=O)OC(COc1ccc(C(F)(F)F)cc1)C(=O)N(Cc1cncs1)Cc1ccccc1Cl` (centres unmarked) [compound 126]: above 10 µM.
The same measure for `CC(=O)OC(COc1ccc(C(F)(F)F)cc1)C(=O)N(Cc1cccnc1)Cc1ccccc1Cl` (centres unmarked) [compound 127]: at most 1 µM; for `OC(COc1ccc(C(F)(F)F)cc1)CN1Cc2ccccc2C[C@@H]1c1cccnc1` (some centres unmarked) [compound 129]: at most 1 µM; for `O[C@@H](COc1ccc(C(F)(F)F)cc1)CN1Cc2ccccc2C[C@@H]1c1cccnc1` [compound 130]: at most 1 µM.
Consider `O[C@H](COc1ccc(C(F)(F)F)cc1)CN1Cc2ccccc2C[C@@H]1c1cccnc1` [compound 131], for which the EC (30% increase) was at most 1 µM.
As to `OC(COc1ccc(C(F)(F)F)cc1)CN1Cc2ccccc2C[C@H]1c1cccnc1` (some centres unmarked) [compound 132], the EC (30% increase) is at most 1 µM.
On to `O[C@H](COc1ccc(C(F)(F)F)cc1)CN1Cc2ccccc2C[C@H]1c1cccnc1` [compound 133], for which the EC (30% increase) is at most 1 µM.
The same measure for `O[C@@H](COc1ccc(C(F)(F)F)cc1)CN1Cc2ccccc2C[C@H]1c1cccnc1` [compound 134]: at most 1 µM.
For `[2H]C([2H])(c1cccnc1)N(CCCOc1ccc(C(F)(F)F)cc1)Cc1ccccc1C` [compound 135] the value was at most 1 µM; for `FC(F)(F)c1ccc(OCCCN(Cc2ccccc2)Cc2cccnc2)cc1` [compound 136], at most 1 µM; for `O=C(C(O)COc1ccc(C(F)(F)F)cc1)N(Cc1cccnc1)Cc1ccccc1Cl` (centres unmarked) [compound 137], at most 1 µM.
The same measure for `CC(c1cccnc1)N(Cc1ccccc1Cl)CC(O)COc1ccc(C(F)(F)F)cc1` (centres unmarked) [compound 138]: above 10 µM; for `O=C(c1cccnc1)N(Cc1ccccc1Cl)CC(O)COc1ccc(C(F)(F)F)cc1` (centres unmarked) [compound 141]: at most 1 µM; for `FC(F)(F)c1ccc(OCC2(CN(Cc3cccnc3)Cc3ccccc3Cl)CC2)cc1` [compound 142]: at most 1 µM.
With `Fc1ccccc1CN(Cc1cccnc1)CC1(COc2ccc(C(F)(F)F)cc2)CC1` [compound 143], the EC (30% increase) is at most 1 µM.
Consider `Cn1cncc1C(=O)N(Cc1c(Cl)cccc1Cl)CC(O)COc1ccc(C(F)(F)F)cc1` (centres unmarked) [compound 144], for which the EC (30% increase) was 1 to 10 µM.
For `Cn1cncc1C(=O)N(Cc1ccccc1C(F)(F)F)CC(O)COc1ccc(C(F)(F)F)cc1` (centres unmarked) [compound 145] the value was 1 to 10 µM.
Regarding `Cc1ncccc1CN(CC(O)COc1ccc(C(F)(F)F)cc1)C(=O)c1cncn1C` (centres unmarked) [compound 146], the EC (30% increase) was above 10 µM.
Consider `Cn1cncc1CN(Cc1ccccc1Cl)CC(O)COc1ccc(F)cc1F` (centres unmarked) [compound 147], for which the EC (30% increase) is above 10 µM.
For `Cn1cncc1C(=O)N(Cc1ccccc1Cl)CC(O)COc1cnc(C(F)(F)F)nc1` (centres unmarked) [compound 148] the value was above 10 µM; for `Cn1ccnc1C1Cc2ccccc2CN1CC(O)COc1ccc(C(F)(F)F)cc1` (centres unmarked) [compound 149], 1 to 10 µM.
For `FC(F)(F)c1ccc(OCCCN2Cc3ccccc3C[C@@H]2c2cccnc2)cc1` [compound 150] the value was 1 to 10 µM.
The same measure for `FC(F)(F)c1ccc(OCCCN2Cc3ccccc3C[C@H]2c2cccnc2)cc1` [compound 151]: at most 1 µM.

Source of the values: patent publication US12428378B2, “Methods and materials for increasing level of phosphorylated AMPK protein” (University of Pittsburgh—Of the Commonwealth System of …, priority 2019, dated 2025).
